Data taken from patent publication US11572369B2, “Bicyclic pyridine compositions and methods of using the same for cancer therapy” (UNIVERSITY OF SOUTH CAROLINA, priority 2019, dated 2023).

Tests used:
Assay in all cases: KINOMEscan
Type in all cases: binding
Settings in all cases: 2000 nM
[1] = target: ABL1(F317L)-phosphorylated (Homo sapiens, UniProt P00519, F317L)
ACVR1 = target: T1, ACVR1 (Homo sapiens, UniProt Q04771)
T1 construct: purchased DiscoveRx (KINOMEscan scanMAX panel, service)

ACVR2B = target: T2, ACVR2B (Homo sapiens, UniProt Q13705)
T2 construct: purchased DiscoveRx (KINOMEscan scanMAX panel, service)

ASK2 = target: T3, ASK2 (Homo sapiens, UniProt O95382)
T3 construct: DNA label (qPCR read-out); purchased KINOMEscan scanMAX panel (DiscoveRx)

AXL = target: T4, AXL (Homo sapiens, UniProt P30530)
T4 construct: DNA label (qPCR read-out); purchased KINOMEscan scanMAX panel (DiscoveRx)

BIKE = target: T5, BIKE (Homo sapiens, UniProt Q9NSY1)
T5 construct: DNA label (qPCR read-out); purchased KINOMEscan scanMAX panel (DiscoveRx)

CAMK2D = target: T6, CAMK2D (Homo sapiens, UniProt Q13557)
T6 construct: DNA label (qPCR read-out); purchased KINOMEscan (ScanMAX panel service)

CLK3 = target: T7, CLK3 (Homo sapiens, UniProt P49761)
T7 construct: DNA label (for qPCR read-out); purchased DiscoveRx (KINOMEscan scanMAX service)

CTK = target: T8, CTK (Homo sapiens, UniProt P42679)
T8 construct: DNA label; purchased DiscoveRx (KINOMEscan scanMAX panel)

[2] = target: T9, EGFR(L747-E749del, A750P) (Homo sapiens, UniProt P00533, A750P/DEL747-749)
T9 construct: purchased DiscoveRx (KINOMEscan scanMAX panel)

EPHB6 = target: T10, EPHB6 (Homo sapiens, UniProt O15197)
T10 construct: DNA label (qPCR read-out); purchased DiscoveRx (KINOMEscan ScanMAX panel)

FER = target: T11, FER (Homo sapiens, UniProt P16591)
T11 construct: DNA label (qPCR read-out); purchased DiscoveRx (KINOMEscan ScanMAX panel)
T11 sequence (P16591 whole entry): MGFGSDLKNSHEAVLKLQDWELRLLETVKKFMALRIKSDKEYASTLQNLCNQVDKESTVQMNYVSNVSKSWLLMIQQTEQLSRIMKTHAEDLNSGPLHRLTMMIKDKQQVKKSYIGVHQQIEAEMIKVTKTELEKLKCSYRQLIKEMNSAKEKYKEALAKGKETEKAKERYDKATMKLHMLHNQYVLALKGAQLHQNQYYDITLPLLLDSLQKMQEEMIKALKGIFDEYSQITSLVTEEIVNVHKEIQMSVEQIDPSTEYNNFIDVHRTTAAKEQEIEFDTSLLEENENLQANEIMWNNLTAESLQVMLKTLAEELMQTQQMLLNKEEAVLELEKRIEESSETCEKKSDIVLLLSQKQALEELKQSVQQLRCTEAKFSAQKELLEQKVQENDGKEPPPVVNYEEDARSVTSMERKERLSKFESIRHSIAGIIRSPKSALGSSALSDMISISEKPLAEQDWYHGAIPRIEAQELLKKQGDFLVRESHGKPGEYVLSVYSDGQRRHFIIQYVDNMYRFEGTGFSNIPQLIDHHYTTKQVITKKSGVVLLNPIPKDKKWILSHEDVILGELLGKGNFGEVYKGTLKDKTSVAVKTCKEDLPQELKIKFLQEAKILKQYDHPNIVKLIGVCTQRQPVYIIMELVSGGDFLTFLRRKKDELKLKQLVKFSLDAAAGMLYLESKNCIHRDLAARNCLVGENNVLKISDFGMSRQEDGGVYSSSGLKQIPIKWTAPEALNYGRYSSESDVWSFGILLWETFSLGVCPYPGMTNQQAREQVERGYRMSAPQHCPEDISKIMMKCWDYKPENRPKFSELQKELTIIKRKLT

FLT4 = target: T12, FLT4 (Homo sapiens, UniProt P35916)
T12 construct: purchased KINOMEscan (DiscoveRx)

GSK3B = target: T13, GSK3B (Homo sapiens, UniProt P49841)
T13 construct: DNA label (for qPCR read-out); purchased DiscoveRx (KINOMEscan scanMAX panel, contract assay)
T13 sequence (P49841 whole entry): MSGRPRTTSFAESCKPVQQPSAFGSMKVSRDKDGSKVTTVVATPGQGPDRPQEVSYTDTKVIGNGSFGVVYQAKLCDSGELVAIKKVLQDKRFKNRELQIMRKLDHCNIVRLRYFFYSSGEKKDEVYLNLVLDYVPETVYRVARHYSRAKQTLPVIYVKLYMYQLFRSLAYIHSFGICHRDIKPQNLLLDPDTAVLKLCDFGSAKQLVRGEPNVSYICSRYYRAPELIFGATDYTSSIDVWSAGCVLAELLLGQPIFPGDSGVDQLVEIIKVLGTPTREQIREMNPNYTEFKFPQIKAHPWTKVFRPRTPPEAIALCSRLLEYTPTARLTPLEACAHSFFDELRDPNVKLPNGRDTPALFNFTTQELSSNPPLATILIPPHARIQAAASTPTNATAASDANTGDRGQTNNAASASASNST

IKK-epsilon = target: T14, IKK-epsilon (Homo sapiens, UniProt Q14164)
T14 construct: DNA label (qPCR read-out); purchased KINOMEscan (DiscoveRx) ScanMAX panel
T14 sequence (Q14164 whole entry): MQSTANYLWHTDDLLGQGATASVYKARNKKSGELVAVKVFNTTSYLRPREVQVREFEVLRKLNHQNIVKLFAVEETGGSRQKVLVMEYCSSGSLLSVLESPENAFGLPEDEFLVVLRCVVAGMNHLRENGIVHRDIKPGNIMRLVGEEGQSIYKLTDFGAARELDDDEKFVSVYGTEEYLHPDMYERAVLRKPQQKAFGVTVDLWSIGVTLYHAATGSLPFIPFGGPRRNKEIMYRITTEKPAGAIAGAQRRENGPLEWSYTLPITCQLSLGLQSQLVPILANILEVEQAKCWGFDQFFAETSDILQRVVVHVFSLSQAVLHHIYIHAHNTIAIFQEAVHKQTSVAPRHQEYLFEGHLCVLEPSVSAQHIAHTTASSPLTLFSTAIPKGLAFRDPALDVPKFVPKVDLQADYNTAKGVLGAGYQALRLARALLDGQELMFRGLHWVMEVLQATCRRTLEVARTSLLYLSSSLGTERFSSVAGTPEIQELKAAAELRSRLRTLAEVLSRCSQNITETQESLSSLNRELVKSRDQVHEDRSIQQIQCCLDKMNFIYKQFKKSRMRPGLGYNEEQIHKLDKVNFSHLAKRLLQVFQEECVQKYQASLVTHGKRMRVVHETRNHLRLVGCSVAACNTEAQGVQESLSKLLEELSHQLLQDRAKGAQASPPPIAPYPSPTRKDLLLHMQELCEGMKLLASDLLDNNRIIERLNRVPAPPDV

KIT(D816V) = target: T15, KIT(D816V) (Homo sapiens, UniProt P10721, D816V)
T15 construct: DNA label (for qPCR read-out); purchased DiscoveRx (KINOMEscan scanMAX panel)

LRRK2(G2019S) = target: T16, LRRK2(G2019S) (Homo sapiens, UniProt Q5S007, G2019S)
T16 construct: purchased KINOMEscan (DiscoveRx) panel service

LTK = target: T17, LTK (Homo sapiens, UniProt P29376)
T17 construct: purchased KINOMEscan (DiscoveRx) panel service

MAP3K3 = MAP3K3 (Homo sapiens, UniProt Q99759)
Sequence of MAP3K3 (Q99759 whole entry): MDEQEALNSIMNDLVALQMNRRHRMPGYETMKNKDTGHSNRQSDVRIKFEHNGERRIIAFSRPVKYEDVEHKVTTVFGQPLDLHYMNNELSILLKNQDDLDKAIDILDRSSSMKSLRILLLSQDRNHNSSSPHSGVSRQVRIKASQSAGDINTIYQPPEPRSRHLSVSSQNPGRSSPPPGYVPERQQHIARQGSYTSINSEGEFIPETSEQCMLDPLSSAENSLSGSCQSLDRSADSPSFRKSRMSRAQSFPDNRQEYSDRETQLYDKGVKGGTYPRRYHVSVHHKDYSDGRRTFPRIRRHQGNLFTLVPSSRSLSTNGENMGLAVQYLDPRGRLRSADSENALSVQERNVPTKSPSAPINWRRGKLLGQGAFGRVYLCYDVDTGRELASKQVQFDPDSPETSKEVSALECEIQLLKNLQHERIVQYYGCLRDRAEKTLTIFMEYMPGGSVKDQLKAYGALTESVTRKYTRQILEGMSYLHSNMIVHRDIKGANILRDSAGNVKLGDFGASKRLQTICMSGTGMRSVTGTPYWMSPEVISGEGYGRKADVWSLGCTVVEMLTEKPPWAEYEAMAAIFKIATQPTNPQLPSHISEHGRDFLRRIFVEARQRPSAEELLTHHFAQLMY

MARK2 = MARK2 (Homo sapiens, UniProt Q7KZI7)
MELK = target: T18, MELK (Homo sapiens, UniProt Q14680)
T18 construct: purchased DiscoveRx (KINOMEscan scanMAX panel, service)
T18 sequence (Q14680 whole entry): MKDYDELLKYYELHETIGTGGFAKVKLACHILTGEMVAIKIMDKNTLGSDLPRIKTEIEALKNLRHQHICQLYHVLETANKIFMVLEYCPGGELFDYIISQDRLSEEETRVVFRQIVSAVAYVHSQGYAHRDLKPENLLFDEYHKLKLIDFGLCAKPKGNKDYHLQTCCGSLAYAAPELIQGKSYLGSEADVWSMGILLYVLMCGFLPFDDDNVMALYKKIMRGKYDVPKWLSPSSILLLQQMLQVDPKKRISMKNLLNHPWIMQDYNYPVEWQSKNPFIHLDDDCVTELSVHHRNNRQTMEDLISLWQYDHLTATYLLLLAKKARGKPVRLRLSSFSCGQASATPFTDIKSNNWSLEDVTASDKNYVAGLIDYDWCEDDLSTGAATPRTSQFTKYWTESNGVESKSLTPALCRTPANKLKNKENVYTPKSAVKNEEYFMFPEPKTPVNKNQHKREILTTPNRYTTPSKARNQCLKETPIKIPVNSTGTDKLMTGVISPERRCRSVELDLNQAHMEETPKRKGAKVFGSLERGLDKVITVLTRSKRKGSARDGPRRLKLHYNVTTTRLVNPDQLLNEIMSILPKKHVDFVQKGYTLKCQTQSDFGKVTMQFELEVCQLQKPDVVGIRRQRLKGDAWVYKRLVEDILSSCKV

MINK = target: T19, MINK (Homo sapiens, UniProt Q8N4C8)
T19 construct: DNA label (qPCR read-out); purchased KINOMEscan scanMAX panel (DiscoveRx)

MTOR = target: T20, MTOR (Homo sapiens, UniProt P42345)
T20 construct: DNA label (for qPCR read-out); purchased KINOMEscan scanMAX panel (DiscoveRx)

NEK3 = target: T21, NEK3 (Homo sapiens, UniProt P51956)
T21 construct: DNA label (qPCR read-out); purchased KINOMEscan (ScanMAX panel service)
T21 sequence (P51956 whole entry): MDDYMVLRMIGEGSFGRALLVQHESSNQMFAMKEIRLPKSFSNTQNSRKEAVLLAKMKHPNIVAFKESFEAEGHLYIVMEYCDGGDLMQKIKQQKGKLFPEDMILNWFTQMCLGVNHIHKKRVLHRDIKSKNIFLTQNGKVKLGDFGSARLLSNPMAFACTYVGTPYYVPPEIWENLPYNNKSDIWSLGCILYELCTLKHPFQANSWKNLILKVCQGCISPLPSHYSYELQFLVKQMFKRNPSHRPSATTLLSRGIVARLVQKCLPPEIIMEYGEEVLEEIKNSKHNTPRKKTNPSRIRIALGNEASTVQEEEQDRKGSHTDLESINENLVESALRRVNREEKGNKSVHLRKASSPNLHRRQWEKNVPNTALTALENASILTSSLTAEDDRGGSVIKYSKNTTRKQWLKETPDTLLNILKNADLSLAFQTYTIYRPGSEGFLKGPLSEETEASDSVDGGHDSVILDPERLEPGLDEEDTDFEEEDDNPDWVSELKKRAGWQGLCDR

NLK = target: T22, NLK (Homo sapiens, UniProt Q9UBE8)
T22 construct: DNA label (qPCR read-out); purchased KINOMEscan (ScanMAX panel service)

PIK3C2B = target: T23, PIK3C2B (Homo sapiens, UniProt O00750)
T23 construct: DNA label (for qPCR read-out); purchased DiscoveRx (KINOMEscan scanMAX service)

RIOK3 = target: T24, RIOK3 (Homo sapiens, UniProt O14730)
T24 construct: DNA label (qPCR read-out); purchased DiscoveRx (KINOMEscan ScanMAX panel)
T24 sequence (O14730 whole entry): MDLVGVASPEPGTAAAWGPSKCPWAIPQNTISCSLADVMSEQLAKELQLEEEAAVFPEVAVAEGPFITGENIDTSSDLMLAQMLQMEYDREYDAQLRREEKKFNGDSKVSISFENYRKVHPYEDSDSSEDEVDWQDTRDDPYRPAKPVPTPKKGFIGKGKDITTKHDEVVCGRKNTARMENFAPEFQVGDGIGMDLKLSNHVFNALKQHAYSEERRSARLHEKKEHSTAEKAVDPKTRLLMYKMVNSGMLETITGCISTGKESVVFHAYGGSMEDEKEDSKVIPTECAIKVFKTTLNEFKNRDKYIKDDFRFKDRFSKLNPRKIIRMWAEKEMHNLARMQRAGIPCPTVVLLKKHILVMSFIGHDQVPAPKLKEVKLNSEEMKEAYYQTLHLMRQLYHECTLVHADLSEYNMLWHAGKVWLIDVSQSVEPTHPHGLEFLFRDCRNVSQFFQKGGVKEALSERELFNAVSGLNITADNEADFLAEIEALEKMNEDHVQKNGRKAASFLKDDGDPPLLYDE

RIPK1 = target: T25, RIPK1 (Homo sapiens, UniProt Q13546)
T25 construct: DNA label (qPCR read-out); purchased DiscoveRx (KINOMEscan ScanMAX panel)

[3] = target: T26, RPS6KA5(Kin.Dom.2-C-terminal) (Homo sapiens, UniProt O75582)
T26 construct: RPS6KA5(Kin.Dom.2); purchased DiscoveRx (KINOMEscan scanMAX panel)
T26 sequence (O75582 426-687 limits assumed): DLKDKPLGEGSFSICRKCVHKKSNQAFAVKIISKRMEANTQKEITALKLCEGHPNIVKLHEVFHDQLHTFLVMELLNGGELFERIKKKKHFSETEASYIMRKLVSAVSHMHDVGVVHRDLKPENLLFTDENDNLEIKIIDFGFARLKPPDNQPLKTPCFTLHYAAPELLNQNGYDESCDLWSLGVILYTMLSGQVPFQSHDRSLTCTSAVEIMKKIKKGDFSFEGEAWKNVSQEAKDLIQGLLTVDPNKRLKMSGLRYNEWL

[4] = target: T27, RSK1(Kin.Dom.1-N-terminal) (Homo sapiens, UniProt Q15418)
T27 construct: RSK1(Kin.Dom.1); purchased DiscoveRx (KINOMEscan scanMAX panel)

SYK = target: T28, SYK (Homo sapiens, UniProt P43405)
T28 construct: DNA label (for qPCR read-out); purchased DiscoveRx (KINOMEscan scanMAX panel, contract assay)

TAOK2 = target: T29, TAOK2 (Homo sapiens, UniProt Q9UL54)
T29 construct: DNA label (for qPCR read-out); purchased DiscoveRx (KINOMEscan scanMAX panel, contract assay)

TAOK3 = target: T30, TAOK3 (Homo sapiens, UniProt Q9H2K8)
T30 construct: DNA label (for qPCR read-out); purchased DiscoveRx (KINOMEscan scanMAX panel, contract assay)

TLK2 = target: T31, TLK2 (Homo sapiens, UniProt Q86UE8)
T31 construct: DNA label (qPCR read-out); purchased KINOMEscan (DiscoveRx) ScanMAX panel

TRPM6 = target: T32, TRPM6 (Homo sapiens, UniProt Q9BX84)
T32 construct: DNA label (for qPCR read-out); purchased DiscoveRx (KINOMEscan scanMAX panel)

T1 sequence (Q04771 21-509): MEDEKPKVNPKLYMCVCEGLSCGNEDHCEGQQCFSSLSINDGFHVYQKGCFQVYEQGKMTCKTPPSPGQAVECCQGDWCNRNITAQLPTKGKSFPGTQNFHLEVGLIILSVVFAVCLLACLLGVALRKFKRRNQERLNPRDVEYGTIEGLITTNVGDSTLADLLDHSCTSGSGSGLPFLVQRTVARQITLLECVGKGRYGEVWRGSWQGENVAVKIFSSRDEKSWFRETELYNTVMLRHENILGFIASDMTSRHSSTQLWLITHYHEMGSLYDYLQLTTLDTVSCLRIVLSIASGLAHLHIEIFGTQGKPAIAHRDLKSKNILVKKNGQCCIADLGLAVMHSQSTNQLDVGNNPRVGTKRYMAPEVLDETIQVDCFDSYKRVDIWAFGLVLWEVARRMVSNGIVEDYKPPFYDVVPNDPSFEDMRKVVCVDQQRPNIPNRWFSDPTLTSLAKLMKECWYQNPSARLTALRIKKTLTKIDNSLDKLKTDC

Structure (SMILES) | % Ctrl [1] | % Ctrl (ACVR1) | % Ctrl (ACVR2B) | % Ctrl (ASK2) | % Ctrl (AXL) | % Ctrl (BIKE) | % Ctrl (CAMK2D) | % Ctrl (CLK3) | % Ctrl (CTK) | % Ctrl [2] | % Ctrl (EPHB6) | % Ctrl (FER) | % Ctrl (FLT4) | % Ctrl (GSK3B) | % Ctrl (IKK-epsilon) | % Ctrl (KIT(D816V)) | % Ctrl (LRRK2(G2019S)) | % Ctrl (LTK) | % Ctrl (MAP3K3) | % Ctrl (MARK2) | also measured
[2H]C([2H])([2H])N(C(=O)c1ccc(N2CCCN(c3ccnc4sc(C(N)=O)c(N)c34)CC2)cc1)C([2H])([2H])[2H] [15u_D6, 3-amino-4-(4-(4-(bis(methyl-d3)carbamoyl)phenyl)-1,4-diazepan-1-yl)thieno[2,3-b]pyridine-2-carboxamide] | 82 % Ctrl | 100 % Ctrl | 86 % Ctrl | 88 % Ctrl | 96 % Ctrl | 96 % Ctrl | 92 % Ctrl | 95 % Ctrl | 100 % Ctrl | 100 % Ctrl | 89 % Ctrl | 100 % Ctrl | 98 % Ctrl | 77 % Ctrl | 100 % Ctrl | 79 % Ctrl | 76 % Ctrl | 77 % Ctrl | 72 % Ctrl | 96 % Ctrl | % Ctrl (MELK): 84 % Ctrl; % Ctrl (MINK): 87 % Ctrl; % Ctrl (MTOR): 97 % Ctrl; % Ctrl (NEK3): 76 % Ctrl; % Ctrl (NLK): 98 % Ctrl; % Ctrl (PIK3C2B): 87 % Ctrl; % Ctrl (RIOK3): 95 % Ctrl; % Ctrl (RIPK1): 100 % Ctrl; % Ctrl [3]: 100 % Ctrl; % Ctrl [4]: 96 % Ctrl; % Ctrl (SYK): 100 % Ctrl; % Ctrl (TAOK2): 93 % Ctrl; % Ctrl (TAOK3): 73 % Ctrl; % Ctrl (TLK2): 97 % Ctrl; % Ctrl (TRPM6): 80 % Ctrl
CN(C)C(=O)c1ccc(N2CCCN(c3ccnc4sc(C(N)=O)c(N)c34)CC2)cc1 [15u, 3-amino-4-(4-(4-(dimethylcarbamoyl)phenyl)-1,4-diazepan-1-yl)thieno[2,3-b]pyridine-2-carboxamide] | 97 % Ctrl | 100 % Ctrl | 100 % Ctrl | 90 % Ctrl | 99 % Ctrl | 100 % Ctrl | 99 % Ctrl | 100 % Ctrl | 92 % Ctrl | 99 % Ctrl | 95 % Ctrl | 99 % Ctrl | 92 % Ctrl | 79 % Ctrl | 100 % Ctrl | 93 % Ctrl | 90 % Ctrl | 90 % Ctrl | 100 % Ctrl | 100 % Ctrl | % Ctrl (MELK): 75 % Ctrl; % Ctrl (MINK): 100 % Ctrl; % Ctrl (MTOR): 88 % Ctrl; % Ctrl (NEK3): 100 % Ctrl; % Ctrl (NLK): 98 % Ctrl; % Ctrl (PIK3C2B): 89 % Ctrl; % Ctrl (RIOK3): 100 % Ctrl; % Ctrl (RIPK1): 99 % Ctrl; % Ctrl [3]: 95 % Ctrl; % Ctrl [4]: 98 % Ctrl; % Ctrl (SYK): 95 % Ctrl; % Ctrl (TAOK2): 92 % Ctrl; % Ctrl (TAOK3): 98 % Ctrl; % Ctrl (TLK2): 100 % Ctrl; % Ctrl (TRPM6): 100 % Ctrl
